Experimental data: PMC6362118, “Pharmacophore-guided discovery of CDC25 inhibitors causing cell cycle arrest and tumor regression” (Scientific Reports, 2019)

Key:
[1] = tested on: zebrafish embryos; type: in vivo; conditions: 10 µM (effective dose)
Method: (§1) Implantation of HCT116 cells into zebrafish embryos were carried out essentially as previously described. Briefly, HCT116 cells were cultured in McCoy’s medium supplemented with 10% FCS and penicillin/streptomycin until ~80% confluence, then labeled for 30 min at 37 °C in 6 μg/mL 1,1′-dioctadecyl-3,3,3′,3′-tetramethylindocarbocyanine perchlorate (DiI, Sigma) in PBS followed by washing 3x in PBS. Labeled cells were implanted in the perivitelline space of 48 hours post-fertilization (hpf) wildtype (AB) zebrafish embryos, kept from the 1-cell stage in 1-phenyl-2-thiourea (PTU)-containing E3-water. […] As control, embryos were incubated in PTU-E3 with 0.1% DMSO (vehicle). Tumor-bearing embryos were incubated at 36 °C for three days and the change in tumor volume was evaluated as the size of the tumors at three days post-implantation (3 dpi) relative to the size immediately after implantation (0 dpi). Metastasis was evaluated at 3 dpi as the number of tumor cells present in the caudal hematopoietic plexus, the main metastatic site for tumors implanted in the perivitelline space.

[2] = tested on: HCT116 tumors; assay: HCT116 tumor xenograft in zebrafish embryos; type: in vivo; conditions: for primary tumor size at day 3 relative to day 0: 10 µM in water, three days (day 2 to day 5); for metastasis (tumor cells in caudal hematopoietic plexus): 10 µM, 3 dpi
Method: as §1

[3] = tested on: PP2A; assay: Compound profiling, phosphatase panel (Eurofins); type: biochemical; conditions: relative to DMSO
From the text: (§2) 125 Compound profiling - Selected compounds were profiled against a panel of protein
(§3) 126 phosphatases at Eurofins Pharma Discovery Services Ltd., Dundee, UK.

[4] = tested on: PTPN11 (SHP-2); assay: Compound profiling, phosphatase panel (Eurofins); type: biochemical; conditions: relative to DMSO
From the text: as §2, §3

[5] = tested on: PTPN4 (MEG1); assay: Compound profiling, phosphatase panel (Eurofins); type: biochemical; conditions: relative to DMSO
From the text: as §2, §3

[6] = tested on: PTPN7 (HePTP); assay: Compound profiling, phosphatase panel (Eurofins); type: biochemical; conditions: relative to DMSO
From the text: as §2, §3

[7] = tested on: PP1a; assay: Compound profiling, phosphatase panel (Eurofins); type: biochemical; conditions: relative to DMSO
From the text: as §2, §3

[8] = tested on: TMDP (DUSP13); assay: Compound profiling, phosphatase panel (Eurofins); type: biochemical; conditions: relative to DMSO
From the text: as §2, §3

[9] = tested on: PTPN6 (SHP-1); assay: Compound profiling, phosphatase panel (Eurofins); type: biochemical; conditions: relative to DMSO
From the text: as §2, §3

[10] = tested on: PTPN2 (TCPTP); assay: Compound profiling, phosphatase panel (Eurofins); type: biochemical; conditions: relative to DMSO
From the text: as §2, §3

[11] = tested on: PTPRC (CD45); assay: Compound profiling, phosphatase panel (Eurofins); type: biochemical; conditions: relative to DMSO
From the text: as §2, §3

[12] = tested on: MKP5 (DUSP10); assay: Compound profiling, phosphatase panel (Eurofins); type: biochemical; conditions: relative to DMSO
From the text: as §2, §3

[13] = tested on: PTPN22; assay: Compound profiling, phosphatase panel (Eurofins); type: biochemical; conditions: relative to DMSO
From the text: as §2, §3

[14] = tested on: PTPN9 (MEG2); assay: Compound profiling, phosphatase panel (Eurofins); type: biochemical; conditions: relative to DMSO
From the text: as §2, §3

[15] = tested on: DUSP22; assay: Compound profiling, phosphatase panel (Eurofins); type: biochemical; conditions: relative to DMSO
From the text: as §2, §3

[16] = tested on: PTPN1 (PTP1B); assay: Compound profiling, phosphatase panel (Eurofins); type: biochemical; conditions: relative to DMSO
From the text: as §2, §3

[17] = tested on: VHR (DUSP3); assay: Compound profiling, phosphatase panel (Eurofins); type: biochemical; conditions: relative to DMSO
From the text: as §2, §3

**Q.** What does the source list for `O=C1C(c2ccc(O)cc2O)=CC(=O)c2c(O)cccc21` [UPD-176, 5-hydroxy-2-(2,4-dihydroxyphenyl)naphthalene-1,4-dione]?
**A.** tolerability / overt toxicity [1]: well tolerated; primary tumor size at day 3 relative to day 0 [2]: tendency towards tumor regression, although not significant; metastasis (tumor cells in caudal hematopoietic plexus) [2]: did not appear to be significant

**Q.** `COc1cccc(SC2=CC(=O)c3cccc(O)c3C2=O)c1` [UPD-795, 2-(3-methoxyphenylthio)-8-hydroxynaphthalene-1,4-dione] was tested. Which “remaining activity (%)” value ([3]; UPD-795 1 µM) did it give?
**A.** 94 ± 1%

**Q.** What about the “remaining activity (%)” value ([4]; UPD-795 1 µM) of the same compound?
**A.** 91 ± 14%

**Q.** And the “remaining activity (%)” value ([5]; UPD-795 1 µM)?
**A.** 94 ± 1%

**Q.** What about the “remaining activity (%)” value ([6]; UPD-795 1 µM) of the same compound?
**A.** 87 ± 2%

**Q.** What about the “remaining activity (%)” value ([7]; UPD-795 1 µM) of the same compound?
**A.** 88 ± 1%

**Q.** What about the “remaining activity (%)” value ([8]; UPD-795 1 µM) of the same compound?
**A.** 100%

**Q.** And the “remaining activity (%)” value ([9]; UPD-795 1 µM)?
**A.** 80 ± 3%

**Q.** What about the “remaining activity (%)” value ([10]; UPD-795 1 µM) of the same compound?
**A.** 99 ± 2%

**Q.** And the “remaining activity (%)” value ([11]; UPD-795 1 µM)?
**A.** 97 ± 2%

**Q.** What about the “remaining activity (%)” value ([12]; UPD-795 1 µM) of the same compound?
**A.** 107 ± 1%

**Q.** And the “remaining activity (%)” value ([13]; UPD-795 1 µM)?
**A.** 98 ± 1%

**Q.** And the “remaining activity (%)” value ([14]; UPD-795 1 µM)?
**A.** 85 ± 5%

**Q.** What about the “remaining activity (%)” value ([15]; UPD-795 1 µM) of the same compound?
**A.** 92 ± 3%

**Q.** And the “remaining activity (%)” value ([16]; UPD-795 1 µM)?
**A.** 94 ± 7%

**Q.** What about the “remaining activity (%)” value ([17]; UPD-795 1 µM) of the same compound?
**A.** 108 ± 4%

**Q.** Which results are given for `O=C1C=C(c2ccc(O)cc2O)C(=O)c2c(O)cccc21` [UPD-140, 2-(2′,4′-dihydroxyphenyl)-8-hydroxy-1,4-naphthoquinone]?
**A.** tolerability / overt toxicity [1]: well tolerated; primary tumor size at day 3 relative to day 0 [2]: reduced to approximately half the size of the initial volume; metastasis (tumor cells in caudal hematopoietic plexus) [2]: reduction in metastasis achieved borderline significance; remaining activity (%) ([3]; UPD-140 1.5 µM): 95 ± 2%; remaining activity (%) ([4]; UPD-140 1.5 µM): 96 ± 2%; remaining activity (%) ([5]; UPD-140 1.5 µM): 87 ± 1%; remaining activity (%) ([6]; UPD-140 1.5 µM): 95%; remaining activity (%) ([7]; UPD-140 1.5 µM): 89 ± 2%; remaining activity (%) ([8]; UPD-140 1.5 µM): 105 ± 4%; remaining activity (%) ([9]; UPD-140 1.5 µM): 78 ± 2%; remaining activity (%) ([10]; UPD-140 1.5 µM): 87 ± 8%; remaining activity (%) ([11]; UPD-140 1.5 µM): 103 ± 2%; remaining activity (%) ([12]; UPD-140 1.5 µM): 109%; remaining activity (%) ([13]; UPD-140 1.5 µM): 99 ± 5%; remaining activity (%) ([14]; UPD-140 1.5 µM): 89%; remaining activity (%) ([15]; UPD-140 1.5 µM): 90 ± 4%; remaining activity (%) ([16]; UPD-140 1.5 µM): 95 ± 5%; remaining activity (%) ([17]; UPD-140 1.5 µM): 106 ± 4%
